Measurements published in ChEMBL document CHEMBL4507297, “Data for DCP probe PF-04457845” (2021).

Tests used:
[1] = system: Tyrosine-protein kinase ABL1 (Homo sapiens), P00519 [M351T]; conditions: Compound concentration 1000.0 nM
[2] = target: Activin receptor type-1 (Homo sapiens) (UniProt Q04771); conditions: Compound concentration 1000.0 nM
[3] = target: Activin receptor type-2A (Homo sapiens) (UniProt P27037); conditions: Compound concentration 1000.0 nM
[4] = target: Atypical kinase COQ8B, mitochondrial (Homo sapiens) (UniProt Q96D53); conditions: Compound concentration 1000.0 nM
[5] = target: RAC-alpha serine/threonine-protein kinase (Homo sapiens) (UniProt P31749); conditions: Compound concentration 1000.0 nM
[6] = system: ALK tyrosine kinase receptor (Homo sapiens), Q9UM73 [L1196M]; conditions: Compound concentration 1000.0 nM
[7] = target: Bone morphogenetic protein receptor type-1B (Homo sapiens) (UniProt O00238); conditions: Compound concentration 1000.0 nM
[8] = target: Mitotic checkpoint serine/threonine-protein kinase BUB1 (Homo sapiens) (UniProt O43683); conditions: Compound concentration 1000.0 nM
[9] = target: Peripheral plasma membrane protein CASK (Homo sapiens) (UniProt O14936); conditions: Compound concentration 1000.0 nM
[10] = target: Cyclin-dependent kinase 5 (Homo sapiens) (UniProt Q00535); conditions: Compound concentration 1000.0 nM
[11] = target: Dual specificity protein kinase CLK1 (Homo sapiens) (UniProt P49759); conditions: Compound concentration 1000.0 nM
[12] = target: Casein kinase I isoform alpha (Homo sapiens) (UniProt P48729); conditions: Compound concentration 1000.0 nM
[13] = target: Serine/threonine-protein kinase 17A (Homo sapiens) (UniProt Q9UEE5); conditions: Compound concentration 1000.0 nM
[14] = target: Dual specificity tyrosine-phosphorylation-regulated kinase 1B (Homo sapiens) (UniProt Q9Y463); conditions: Compound concentration 1000.0 nM
[15] = system: Epidermal growth factor receptor (Homo sapiens), P00533 [L858R]; conditions: Compound concentration 1000.0 nM
[16] = target: Ephrin type-A receptor 4 (Homo sapiens) (UniProt P54764); conditions: Compound concentration 1000.0 nM
[17] = target: Ephrin type-A receptor 6 (Homo sapiens) (UniProt Q9UF33); conditions: Compound concentration 1000.0 nM
[18] = target: Focal adhesion kinase 1 (Homo sapiens) (UniProt Q05397); conditions: Compound concentration 1000.0 nM
[19] = target: Fibroblast growth factor receptor 1 (Homo sapiens) (UniProt P11362); conditions: Compound concentration 1000.0 nM
[20] = target: Fibroblast growth factor receptor 4 (Homo sapiens) (UniProt P22455); conditions: Compound concentration 1000.0 nM
[21] = system: Receptor-type tyrosine-protein kinase FLT3 (Homo sapiens), P36888 [UNDEFINED MUTATION]; conditions: Compound concentration 1000.0 nM
[22] = target: Inhibitor of nuclear factor kappa-B kinase subunit epsilon (Homo sapiens) (UniProt Q14164); conditions: Compound concentration 1000.0 nM
[23] = target: Tyrosine-protein kinase JAK1 (Homo sapiens) (UniProt P23458); conditions: Compound concentration 1000.0 nM
[24] = target: Mast/stem cell growth factor receptor Kit (Homo sapiens) (UniProt P10721); conditions: Compound concentration 1000.0 nM
[25] = target: Maternal embryonic leucine zipper kinase (Homo sapiens) (UniProt Q14680); conditions: Compound concentration 1000.0 nM
[26] = target: Mitogen-activated protein kinase kinase kinase 9 (Homo sapiens) (UniProt P80192); conditions: Compound concentration 1000.0 nM
[27] = target: Macrophage-stimulating protein receptor (Homo sapiens) (UniProt Q04912); conditions: Compound concentration 1000.0 nM
[28] = target: Serine/threonine-protein kinase 3 (Homo sapiens) (UniProt Q13188); conditions: Compound concentration 1000.0 nM
[29] = target: Serine/threonine-protein kinase 38 (Homo sapiens) (UniProt Q15208); conditions: Compound concentration 1000.0 nM
[30] = target: Serine/threonine-protein kinase Nek6 (Homo sapiens) (UniProt Q9HC98); conditions: Compound concentration 1000.0 nM
[31] = target: 3-phosphoinositide-dependent protein kinase 1 (Homo sapiens) (UniProt O15530); conditions: Compound concentration 1000.0 nM
[32] = target: Cyclin-dependent kinase 15 (Homo sapiens) (UniProt Q96Q40); conditions: Compound concentration 1000.0 nM
[33] = target: Phosphatidylinositol 4,5-bisphosphate 3-kinase catalytic subunit alpha isoform (Homo sapiens) (UniProt P42336); conditions: Compound concentration 1000.0 nM
[34] = target: Serine/threonine-protein kinase pim-1 (Homo sapiens) (UniProt P11309); conditions: Compound concentration 1000.0 nM
[35] = system: Proto-oncogene tyrosine-protein kinase receptor Ret (Homo sapiens), P07949 [V804L]; conditions: Compound concentration 1000.0 nM
[36] = target: Rho-associated protein kinase 2 (Homo sapiens) (UniProt O75116); conditions: Compound concentration 1000.0 nM
[37] = target: Proto-oncogene tyrosine-protein kinase ROS (Homo sapiens) (UniProt P08922); conditions: Compound concentration 1000.0 nM
[38] = target: Ribosomal protein S6 kinase alpha-2 (Homo sapiens) (UniProt Q15349); conditions: Compound concentration 1000.0 nM
[39] = target: SRSF protein kinase 1 (Homo sapiens) (UniProt Q96SB4); conditions: Compound concentration 1000.0 nM
[40] = target: Tyrosine-protein kinase receptor Tie-1 (Homo sapiens) (UniProt P35590); conditions: Compound concentration 1000.0 nM
[41] = target: Serine/threonine-protein kinase tousled-like 2 (Homo sapiens) (UniProt Q86UE8); conditions: Compound concentration 1000.0 nM
[42] = target: D(1A) dopamine receptor (Homo sapiens) (UniProt P21728); conditions: Compound concentration 10.0 uM
[43] = target: Sodium-dependent noradrenaline transporter (Homo sapiens) (UniProt P23975); conditions: Compound concentration 10.0 uM
[44] = target: Histamine H2 receptor (Homo sapiens) (UniProt P25021); conditions: Compound concentration 10.0 uM
[45] = target: Alpha-1B adrenergic receptor (Homo sapiens) (UniProt P35368); conditions: Compound concentration 10.0 uM

Chain of Bone morphogenetic protein receptor type-1B (Homo sapiens) (O00238 whole entry): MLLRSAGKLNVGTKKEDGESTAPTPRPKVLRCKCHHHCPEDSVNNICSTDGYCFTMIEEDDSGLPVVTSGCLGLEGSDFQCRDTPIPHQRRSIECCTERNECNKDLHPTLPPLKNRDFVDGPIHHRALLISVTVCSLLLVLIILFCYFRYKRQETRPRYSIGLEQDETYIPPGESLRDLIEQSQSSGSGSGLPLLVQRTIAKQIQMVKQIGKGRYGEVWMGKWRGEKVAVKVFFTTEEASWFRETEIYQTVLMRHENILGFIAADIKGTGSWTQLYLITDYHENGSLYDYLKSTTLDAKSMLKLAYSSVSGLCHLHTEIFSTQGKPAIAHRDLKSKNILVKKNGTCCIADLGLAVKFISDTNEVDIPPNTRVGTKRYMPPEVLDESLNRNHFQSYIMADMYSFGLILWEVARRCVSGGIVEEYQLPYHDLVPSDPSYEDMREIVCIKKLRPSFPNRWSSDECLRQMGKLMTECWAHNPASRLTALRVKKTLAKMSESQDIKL
Chain of Serine/threonine-protein kinase 38 (Homo sapiens) (Q15208 2-465 limits assumed): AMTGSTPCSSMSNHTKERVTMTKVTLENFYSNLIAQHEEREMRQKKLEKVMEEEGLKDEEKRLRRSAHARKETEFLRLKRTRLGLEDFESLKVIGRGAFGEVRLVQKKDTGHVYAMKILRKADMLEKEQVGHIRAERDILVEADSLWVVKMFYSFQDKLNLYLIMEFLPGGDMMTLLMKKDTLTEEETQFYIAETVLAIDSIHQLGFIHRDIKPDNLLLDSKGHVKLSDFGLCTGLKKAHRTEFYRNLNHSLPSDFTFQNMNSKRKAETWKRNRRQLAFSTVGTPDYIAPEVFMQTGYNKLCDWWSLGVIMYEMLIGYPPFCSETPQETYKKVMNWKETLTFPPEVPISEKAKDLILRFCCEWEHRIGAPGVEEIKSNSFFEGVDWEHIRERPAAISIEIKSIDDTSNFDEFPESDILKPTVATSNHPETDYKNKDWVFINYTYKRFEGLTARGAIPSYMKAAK
Chain of ALK tyrosine kinase receptor (Homo sapiens), Q9UM73 [L1196M] (Q9UM73 whole entry L1196M, looked up): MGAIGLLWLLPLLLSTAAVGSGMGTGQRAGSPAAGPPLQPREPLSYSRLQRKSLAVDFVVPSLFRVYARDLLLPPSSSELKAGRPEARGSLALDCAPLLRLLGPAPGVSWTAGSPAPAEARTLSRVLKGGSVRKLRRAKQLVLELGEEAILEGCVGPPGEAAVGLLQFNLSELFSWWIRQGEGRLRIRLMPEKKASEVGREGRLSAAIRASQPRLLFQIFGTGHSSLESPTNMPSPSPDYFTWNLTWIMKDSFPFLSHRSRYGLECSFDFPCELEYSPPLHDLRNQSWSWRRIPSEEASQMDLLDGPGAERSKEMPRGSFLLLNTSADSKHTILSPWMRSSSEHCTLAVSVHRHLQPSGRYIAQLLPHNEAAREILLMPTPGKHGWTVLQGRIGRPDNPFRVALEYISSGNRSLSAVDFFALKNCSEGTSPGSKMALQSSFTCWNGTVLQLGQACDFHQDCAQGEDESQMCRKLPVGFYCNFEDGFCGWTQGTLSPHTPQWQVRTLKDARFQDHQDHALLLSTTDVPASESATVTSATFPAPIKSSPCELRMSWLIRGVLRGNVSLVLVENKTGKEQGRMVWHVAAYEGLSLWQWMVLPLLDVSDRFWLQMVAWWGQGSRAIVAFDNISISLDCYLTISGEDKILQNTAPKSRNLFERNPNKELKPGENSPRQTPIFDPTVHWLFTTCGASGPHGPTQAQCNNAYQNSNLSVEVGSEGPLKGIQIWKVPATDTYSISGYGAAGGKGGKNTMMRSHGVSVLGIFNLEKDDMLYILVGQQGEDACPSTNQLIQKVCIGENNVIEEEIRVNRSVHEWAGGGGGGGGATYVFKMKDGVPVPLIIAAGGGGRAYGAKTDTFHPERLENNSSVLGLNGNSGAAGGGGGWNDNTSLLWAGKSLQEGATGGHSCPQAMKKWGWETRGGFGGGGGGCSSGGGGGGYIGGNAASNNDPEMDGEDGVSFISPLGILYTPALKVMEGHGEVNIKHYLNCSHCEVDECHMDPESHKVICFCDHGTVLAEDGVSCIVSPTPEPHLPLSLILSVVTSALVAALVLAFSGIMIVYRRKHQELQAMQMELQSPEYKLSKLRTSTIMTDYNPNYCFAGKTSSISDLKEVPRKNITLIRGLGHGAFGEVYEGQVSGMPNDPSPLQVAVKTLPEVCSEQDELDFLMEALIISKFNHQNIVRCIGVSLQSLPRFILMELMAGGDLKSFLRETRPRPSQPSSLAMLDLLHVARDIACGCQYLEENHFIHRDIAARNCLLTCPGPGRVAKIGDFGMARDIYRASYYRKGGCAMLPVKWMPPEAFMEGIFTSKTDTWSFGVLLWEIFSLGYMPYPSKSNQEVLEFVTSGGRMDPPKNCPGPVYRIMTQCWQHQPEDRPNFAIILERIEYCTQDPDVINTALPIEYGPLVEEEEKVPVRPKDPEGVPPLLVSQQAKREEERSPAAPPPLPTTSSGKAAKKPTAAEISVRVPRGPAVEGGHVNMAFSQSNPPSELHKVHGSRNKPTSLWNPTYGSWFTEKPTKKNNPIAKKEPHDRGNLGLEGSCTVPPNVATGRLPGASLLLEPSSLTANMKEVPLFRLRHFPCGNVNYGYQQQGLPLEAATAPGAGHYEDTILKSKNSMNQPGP
Chain of Macrophage-stimulating protein receptor (Homo sapiens) (Q04912 25-304 limits assumed): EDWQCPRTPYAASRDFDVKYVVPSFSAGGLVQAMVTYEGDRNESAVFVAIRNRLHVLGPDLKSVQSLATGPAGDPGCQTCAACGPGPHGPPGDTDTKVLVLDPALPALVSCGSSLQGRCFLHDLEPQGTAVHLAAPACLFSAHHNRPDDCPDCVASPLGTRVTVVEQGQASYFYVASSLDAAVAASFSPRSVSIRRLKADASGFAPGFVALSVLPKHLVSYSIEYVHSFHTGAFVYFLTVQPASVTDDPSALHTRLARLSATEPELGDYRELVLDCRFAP
Chain of Macrophage-stimulating protein receptor (Homo sapiens) (Q04912 310-1400 limits assumed): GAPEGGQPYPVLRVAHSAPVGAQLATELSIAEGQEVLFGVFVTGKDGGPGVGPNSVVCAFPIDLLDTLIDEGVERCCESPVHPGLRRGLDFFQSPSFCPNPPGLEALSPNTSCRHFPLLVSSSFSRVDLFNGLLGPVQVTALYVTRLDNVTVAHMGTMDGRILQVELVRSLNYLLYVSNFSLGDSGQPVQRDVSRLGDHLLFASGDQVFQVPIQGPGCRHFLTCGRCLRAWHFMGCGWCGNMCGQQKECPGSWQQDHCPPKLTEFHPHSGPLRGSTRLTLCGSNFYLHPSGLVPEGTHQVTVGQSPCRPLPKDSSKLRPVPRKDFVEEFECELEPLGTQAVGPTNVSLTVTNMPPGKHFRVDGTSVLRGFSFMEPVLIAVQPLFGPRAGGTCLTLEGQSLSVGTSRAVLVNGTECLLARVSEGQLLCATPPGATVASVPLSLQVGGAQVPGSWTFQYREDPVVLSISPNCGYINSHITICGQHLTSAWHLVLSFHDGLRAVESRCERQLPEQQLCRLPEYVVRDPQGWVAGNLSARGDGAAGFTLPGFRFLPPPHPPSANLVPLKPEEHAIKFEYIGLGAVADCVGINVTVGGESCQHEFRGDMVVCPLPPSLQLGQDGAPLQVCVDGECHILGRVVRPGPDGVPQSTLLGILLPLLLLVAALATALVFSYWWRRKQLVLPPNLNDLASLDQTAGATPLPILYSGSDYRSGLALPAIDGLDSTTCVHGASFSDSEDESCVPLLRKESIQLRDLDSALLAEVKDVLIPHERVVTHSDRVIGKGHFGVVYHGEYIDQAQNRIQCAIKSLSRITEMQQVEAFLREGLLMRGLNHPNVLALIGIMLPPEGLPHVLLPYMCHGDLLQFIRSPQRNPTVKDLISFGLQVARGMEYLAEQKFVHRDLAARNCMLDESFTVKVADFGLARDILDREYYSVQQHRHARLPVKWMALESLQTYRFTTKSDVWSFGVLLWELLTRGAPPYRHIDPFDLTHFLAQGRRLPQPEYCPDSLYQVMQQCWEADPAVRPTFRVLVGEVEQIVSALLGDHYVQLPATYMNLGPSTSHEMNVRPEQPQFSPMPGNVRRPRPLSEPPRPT
Chain of SRSF protein kinase 1 (Homo sapiens) (Q96SB4 whole entry): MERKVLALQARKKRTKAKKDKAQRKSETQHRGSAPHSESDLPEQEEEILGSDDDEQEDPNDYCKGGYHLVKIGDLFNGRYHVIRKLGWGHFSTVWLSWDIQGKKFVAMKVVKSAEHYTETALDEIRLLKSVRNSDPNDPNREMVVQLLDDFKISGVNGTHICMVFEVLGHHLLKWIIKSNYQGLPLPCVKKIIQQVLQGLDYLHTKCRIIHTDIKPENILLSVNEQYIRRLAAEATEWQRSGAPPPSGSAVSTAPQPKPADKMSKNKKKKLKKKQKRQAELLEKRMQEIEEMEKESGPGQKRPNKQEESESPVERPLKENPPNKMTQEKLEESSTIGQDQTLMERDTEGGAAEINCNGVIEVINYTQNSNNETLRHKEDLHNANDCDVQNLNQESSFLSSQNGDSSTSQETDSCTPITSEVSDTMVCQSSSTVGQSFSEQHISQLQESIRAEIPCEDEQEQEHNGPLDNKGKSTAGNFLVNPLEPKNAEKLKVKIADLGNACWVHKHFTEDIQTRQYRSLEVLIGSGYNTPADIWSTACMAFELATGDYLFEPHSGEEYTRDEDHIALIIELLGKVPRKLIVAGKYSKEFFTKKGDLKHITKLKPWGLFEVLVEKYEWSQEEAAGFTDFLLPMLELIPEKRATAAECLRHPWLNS
Chain of Serine/threonine-protein kinase Nek6 (Homo sapiens) (Q9HC98 whole entry): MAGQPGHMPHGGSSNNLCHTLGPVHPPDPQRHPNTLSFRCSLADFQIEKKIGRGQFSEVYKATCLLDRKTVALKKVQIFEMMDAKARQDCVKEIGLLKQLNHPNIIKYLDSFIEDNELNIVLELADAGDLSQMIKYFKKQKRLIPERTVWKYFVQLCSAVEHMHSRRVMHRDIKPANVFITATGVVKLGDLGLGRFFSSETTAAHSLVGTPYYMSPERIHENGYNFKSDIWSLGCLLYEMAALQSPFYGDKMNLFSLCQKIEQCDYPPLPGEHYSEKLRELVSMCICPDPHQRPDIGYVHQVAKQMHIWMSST

## O=C(Nc1cccnn1)N1CCC(=Cc2cccc(Oc3ccc(C(F)(F)F)cn3)c2)CC1
[1]
  residual activity: 99%
[2]
  residual activity: 92%
[3]
  residual activity: 100%
[4]
  residual activity: 81%
[5]
  residual activity: 93%
[6]
  residual activity: 100%
[7]
  residual activity: 88%
[8]
  residual activity: 100%
[9]
  residual activity: 92%
[10]
  residual activity: 92%
[11]
  residual activity: 95%
[12]
  residual activity: 100%
[13]
  residual activity: 79%
[14]
  residual activity: 100%
[15]
  residual activity: 100%
[16]
  residual activity: 100%
[17]
  residual activity: 78%
[18]
  residual activity: 100%
[19]
  residual activity: 100%
[20]
  residual activity: 100%
[21]
  residual activity: 100%
[22]
  residual activity: 100%
[23]
  residual activity: 100%
[24]
  residual activity: 81%
[25]
  residual activity: 100%
[26]
  residual activity: 100%
[27]
  residual activity: 92%
[28]
  residual activity: 100%
[29]
  residual activity: 100%
[30]
  residual activity: 100%
[31]
  residual activity: 85%
[32]
  residual activity: 100%
[33]
  residual activity: 100%
[34]
  residual activity: 85%
[35]
  residual activity: 86%
[36]
  residual activity: 100%
[37]
  residual activity: 80%
[38]
  residual activity: 80%
[39]
  residual activity: 97%
[40]
  residual activity: 100%
[41]
  residual activity: 100%
[42]
  inhibition: -3.23%
[43]
  inhibition: 7.86%
[44]
  inhibition: 17.3%
[45]
  inhibition: 0.4%

## O=C(Nc1cccnn1)N1CC(C/C=C/c2cncc(Oc3ccc(C(F)(F)F)cn3)n2)C1
[1]
  residual activity: 67%
[2]
  residual activity: 92%
[3]
  residual activity: 100%
[4]
  residual activity: 94%
[5]
  residual activity: 100%
[6]
  residual activity: 82%
[7]
  residual activity: 91%
[8]
  residual activity: 1.4%
[9]
  residual activity: 64%
[10]
  residual activity: 100%
[11]
  residual activity: 100%
[12]
  residual activity: 88%
[13]
  residual activity: 100%
[14]
  residual activity: 100%
[15]
  residual activity: 97%
[16]
  residual activity: 100%
[17]
  residual activity: 100%
[18]
  residual activity: 100%
[19]
  residual activity: 100%
[20]
  residual activity: 100%
[21]
  residual activity: 76%
[22]
  residual activity: 77%
[23]
  residual activity: 95%
[24]
  residual activity: 80%
[25]
  residual activity: 100%
[26]
  residual activity: 100%
[27]
  residual activity: 100%
[28]
  residual activity: 80%
[29]
  residual activity: 99%
[30]
  residual activity: 100%
[31]
  residual activity: 97%
[32]
  residual activity: 100%
[33]
  residual activity: 100%
[34]
  residual activity: 91%
[35]
  residual activity: 93%
[36]
  residual activity: 90%
[37]
  residual activity: 100%
[38]
  residual activity: 100%
[39]
  residual activity: 82%
[40]
  residual activity: 100%
[41]
  residual activity: 100%
[42]
  inhibition: 1.14%
[43]
  inhibition: -1%
[44]
  inhibition: -3.96%
[45]
  inhibition: 0.27%
